# Experimental data as given in ChEMBL document CHEMBL1201862, “PubChem BioAssay data set” (2004).
#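 Tested at 5 concentrations; 48 h exposure; 96-well plates; endpoints linearly interpolated, else capped at highest concentration. The concentration for 50% growth inhibition is given as GI50.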 Calls of active or inactive are those of the source. Cut-off read from the data, not from the text of the source: active = GI50 up to about 1.1 µM and inactive = higher.
# Key:
# Assay in all cases: inhibition of tumour cell growth, NCI panel, 48 h
# SK-MEL-2 = tested on: SK-MEL-2
# ACHN = tested on: ACHN
# RXF 393 = tested on: RXF 393
# MOLT-4 = tested on: MOLT-4
# SNB-19 = tested on: SNB-19
# COLO 205 = tested on: COLO 205
# OVCAR-3 = tested on: OVCAR-3
# M14 = tested on: M14
# NCI/ADR-RES = tested on: NCI/ADR-RES
# T47D = tested on: T47D
# MDA-N = tested on: MDA-N
# EKVX = tested on: EKVX
# UACC-257 = tested on: UACC-257
# SR = tested on: SR
# SNB-75 = tested on: SNB-75
# U-251 = tested on: U-251
# SK-MEL-28 = tested on: SK-MEL-28
# Malme-3M = tested on: Malme-3M
# SK-OV-3 = tested on: SK-OV-3
# HOP-92 = tested on: HOP-92
Structure (SMILES),GI50 (SK-MEL-2),GI50 (ACHN),GI50 (RXF 393),GI50 (MOLT-4),GI50 (SNB-19),GI50 (COLO 205),GI50 (OVCAR-3),GI50 (M14),GI50 (NCI/ADR-RES),GI50 (T47D),GI50 (MDA-N),GI50 (EKVX),GI50 (UACC-257),GI50 (SR),GI50 (SNB-75),GI50 (U-251),GI50 (SK-MEL-28),GI50 (Malme-3M),GI50 (SK-OV-3),GI50 (HOP-92)
CCOC(=O)c1c(N=C(S)Nc2ccc(Cl)cc2)sc2c1CCN(C)C2,> 100 µM (inactive),> 100 µM (inactive),32.7 µM (inactive),41.8 µM (inactive),> 100 µM (inactive),> 100 µM (inactive),74 µM (inactive),> 100 µM (inactive),> 100 µM (inactive),> 100 µM (inactive),> 100 µM (inactive),> 100 µM (inactive),> 100 µM (inactive),,,,,,,
O=c1[nH]c2nccnc2c2c([N+](=O)[O-])cccc12,> 100 µM (inactive),> 100 µM (inactive),58.2 µM (inactive),> 100 µM (inactive),> 100 µM (inactive),> 100 µM (inactive),> 100 µM (inactive),> 100 µM (inactive),> 100 µM (inactive),20.5 µM (inactive),> 100 µM (inactive),> 100 µM (inactive),,> 100 µM (inactive),> 100 µM (inactive),> 100 µM (inactive),> 100 µM (inactive),> 100 µM (inactive),> 100 µM (inactive),
Nc1ccc(Oc2ccc(C34CC5C6CC7(c8ccc(Oc9ccc(N)cc9)cc8)CC5C(C3)C(C7)C6C4)cc2)cc1,> 100 µM (inactive),> 100 µM (inactive),> 100 µM (inactive),> 100 µM (inactive),> 100 µM (inactive),> 100 µM (inactive),> 100 µM (inactive),> 100 µM (inactive),> 100 µM (inactive),> 100 µM (inactive),> 100 µM (inactive),> 100 µM (inactive),> 100 µM (inactive),,,> 100 µM (inactive),> 100 µM (inactive),> 100 µM (inactive),,> 100 µM (inactive)
CC[n+]1[b-](C(C)(C)C)n(/N=C(\C)C(C)(C)C)[b-](C(C)(C)C)[n+]1CC,> 100 µM (inactive),> 100 µM (inactive),> 100 µM (inactive),> 100 µM (inactive),> 100 µM (inactive),,> 100 µM (inactive),> 100 µM (inactive),87.1 µM (inactive),> 100 µM (inactive),> 10 µM (inactive),> 100 µM (inactive),> 100 µM (inactive),23.6 µM (inactive),> 100 µM (inactive),> 100 µM (inactive),> 100 µM (inactive),> 100 µM (inactive),,
O=C1CCCc2ccc3c(c21)CC1(Cc2cc4c(cc2C1)CCCC4)C3,21.2 µM (inactive),16.1 µM (inactive),15.6 µM (inactive),14.8 µM (inactive),26.6 µM (inactive),14.8 µM (inactive),20.1 µM (inactive),16.9 µM (inactive),25.9 µM (inactive),5.38 µM (inactive),,21.1 µM (inactive),18.5 µM (inactive),6.98 µM (inactive),20.7 µM (inactive),20.4 µM (inactive),24.9 µM (inactive),18.3 µM (inactive),43.9 µM (inactive),12.9 µM (inactive)
CC1CC(C#N)=C2NCCN2C1=O (centres undefined),> 100 µM (inactive),,> 100 µM (inactive),> 100 µM (inactive),> 100 µM (inactive),22.1 µM (inactive),> 100 µM (inactive),19.4 µM (inactive),> 100 µM (inactive),> 100 µM (inactive),16.4 µM (inactive),> 100 µM (inactive),78 µM (inactive),> 100 µM (inactive),> 100 µM (inactive),> 100 µM (inactive),> 100 µM (inactive),94 µM (inactive),> 100 µM (inactive),
Cc1ccc(/C(=C/C=C(C#N)C#N)Sc2cc(Cl)ccc2Cl)cc1,8.75 µM (inactive),2.7 µM (inactive),7.29 µM (inactive),,5.97 µM (inactive),4.86 µM (inactive),3.06 µM (inactive),4.48 µM (inactive),2.42 µM (inactive),12.9 µM (inactive),,14 µM (inactive),2.78 µM (inactive),,17 µM (inactive),3.21 µM (inactive),8.57 µM (inactive),16.9 µM (inactive),8 µM (inactive),
C=CCCON(C(=O)OC(C)(C)C)C(C)(C)C,> 100 µM (inactive),> 100 µM (inactive),> 100 µM (inactive),> 100 µM (inactive),> 100 µM (inactive),> 100 µM (inactive),> 100 µM (inactive),> 100 µM (inactive),> 100 µM (inactive),> 100 µM (inactive),> 100 µM (inactive),> 100 µM (inactive),> 100 µM (inactive),,> 100 µM (inactive),> 100 µM (inactive),> 100 µM (inactive),> 100 µM (inactive),> 100 µM (inactive),> 100 µM (inactive)
Cc1ccc(/N=C/C=C(\Nc2ccc(C)cc2)c2ccc3ccccc3c2)cc1,0.938 µM (active),0.671 µM (active),0.521 µM (active),0.237 µM (active),1.68 µM (inactive),0.571 µM (active),0.364 µM (active),1.13 µM (inactive),0.445 µM (active),1.41 µM (inactive),,,0.501 µM (active),0.39 µM (active),0.468 µM (active),0.738 µM (active),0.488 µM (active),0.238 µM (active),0.731 µM (active),10.6 µM (inactive)
S=C(N/N=C(/c1ccccc1)c1ccccn1)N1CCCCC1,0.741 µM (active),< 0.0443 µM (active),1.28 µM (inactive),< 0.0135 µM (active),0.966 µM (active),< 0.0214 µM (active),0.01 µM (active),0.001 µM (active),,0.0927 µM (active),< 0.038 µM (active),< 0.0318 µM (active),< 0.0183 µM (active),< 0.0166 µM (active),1.25 µM (inactive),< 0.0244 µM (active),0.604 µM (active),0.441 µM (active),< 0.0387 µM (active),0.546 µM (active)
c1ccc2c(c1)[nH]c1nc3cc(-c4ccc5nc6c(nc5c4)[nH]c4ccccc46)ccc3nc12,> 100 µM (inactive),> 52.8 µM (inactive),> 100 µM (inactive),0.166 µM (active),> 100 µM (inactive),,,> 100 µM (inactive),,> 100 µM (inactive),> 100 µM (inactive),> 90.4 µM (inactive),> 100 µM (inactive),,> 100 µM (inactive),69.3 µM (inactive),> 100 µM (inactive),> 100 µM (inactive),> 100 µM (inactive),
CC1CC/C(=C\c2ccc(Cl)cc2)c2nc(N)c(C#N)c(-c3ccc(Cl)cc3)c21 (centres undefined),66.1 µM (inactive),42.2 µM (inactive),,14.1 µM (inactive),29.9 µM (inactive),41.4 µM (inactive),47.1 µM (inactive),57.8 µM (inactive),55.1 µM (inactive),55.3 µM (inactive),88.1 µM (inactive),80.7 µM (inactive),32.9 µM (inactive),< 0.01 µM (active),67 µM (inactive),17.7 µM (inactive),49.4 µM (inactive),13.4 µM (inactive),> 100 µM (inactive),
CC1CC(=O)NC2CC1C2(C)C (centres undefined),> 100 µM (inactive),> 100 µM (inactive),> 100 µM (inactive),> 100 µM (inactive),> 100 µM (inactive),> 100 µM (inactive),> 100 µM (inactive),> 100 µM (inactive),,> 100 µM (inactive),> 100 µM (inactive),,> 100 µM (inactive),> 100 µM (inactive),> 100 µM (inactive),> 100 µM (inactive),> 100 µM (inactive),> 100 µM (inactive),,> 100 µM (inactive)
CN/C(=N\N=C1/C(=O)Nc2ccccc21)SCC(=O)c1ccc(Br)cc1,50 µM (inactive),15.5 µM (inactive),5.04 µM (inactive),2.86 µM (inactive),32.4 µM (inactive),41.8 µM (inactive),7.08 µM (inactive),11.7 µM (inactive),6.9 µM (inactive),9.48 µM (inactive),21.3 µM (inactive),22.3 µM (inactive),7.66 µM (inactive),,8.47 µM (inactive),5.21 µM (inactive),15 µM (inactive),13.5 µM (inactive),9.04 µM (inactive),20.7 µM (inactive)
COc1cc(/C=C/C(=O)N[C@@H]2C(=O)N3[C@@H]2SC(C)(C)[C@@H]3C(=O)O)cc(OC)c1OC,> 100 µM (inactive),> 100 µM (inactive),> 100 µM (inactive),> 100 µM (inactive),> 100 µM (inactive),> 100 µM (inactive),> 100 µM (inactive),> 100 µM (inactive),> 100 µM (inactive),> 100 µM (inactive),> 100 µM (inactive),> 100 µM (inactive),> 100 µM (inactive),,> 100 µM (inactive),> 100 µM (inactive),> 100 µM (inactive),,> 100 µM (inactive),> 100 µM (inactive)
CC1(C)OC1COc1c2occc2cc2ccc(=O)oc12 (centres undefined),> 100 µM (inactive),> 100 µM (inactive),> 100 µM (inactive),79.3 µM (inactive),> 100 µM (inactive),> 100 µM (inactive),> 100 µM (inactive),> 100 µM (inactive),> 100 µM (inactive),79.1 µM (inactive),> 100 µM (inactive),58.6 µM (inactive),> 100 µM (inactive),,> 100 µM (inactive),> 100 µM (inactive),> 100 µM (inactive),> 100 µM (inactive),,> 100 µM (inactive)
